This passage reports melting point results from a melting point compilation (Tetko et al.).

Broadly, the melting point is the temperature, or range, at which the solid turns liquid. Regarding `CC(C)CCOC(=O)c1cc([N+](=O)[O-])cc([N+](=O)[O-])c1`, the melting point turned out to be 61 °C.

Consider `Cn1cc(C=O)c(N)n1`, for which the melting point fell in the range of 133 to 134 °C.

For the compound `N#CCS(=O)(=O)c1ccc(Cl)cc1Cl`, the melting point lay in the range of 118 to 121 °C.

With `CCCc1cc(C)cc(C)c1`, the melting point was -59 °C.

Take `Cc1occc1C(=O)O`: the melting point was 102 to 105 °C.

`CC1(C)OCC2OC3(C(=O)O)OC(C)(C)OC3C2O1` (stereo unspecified): the melting point worked out at 92 °C.

In turn, `Cc1ccc([N+](=O)[O-])cc1C(=O)O` yielded a melting point of 179 °C.

For the compound `O=C(OCCc1ccc(CCOC(=O)c2ccc([N+](=O)[O-])cc2)cc1)c1ccc([N+](=O)[O-])cc1`, the melting point was determined as 173 °C.

The compound `CC12CCC(O)C(C)(C)C1C(=O)C(=O)c1c(O)c(C(CO)CO)c(O)c(O)c12` (stereo unspecified) had a melting point of 238 to 240 °C.

`COc1ccc(OC)c(Cl)c1` returned a melting point of 8.1 °C.

As for `Cc1ccc(C(=O)c2nn3c(nc(=O)c4ccccc43)s2)cc1`, the melting point worked out at 211 °C.

Take `CCCCCCCCCCCC(=O)NC`: the melting point worked out at 68 °C.

The compound `O=C(Oc1c(Cl)cc(Cl)cc1Cl)C(=O)Oc1c(Cl)cc(Cl)cc1Cl` gave a melting point of 188 to 192 °C.

The compound `CCCSc1sc(C(=O)OCC)c2c1C(=O)CCC2` showed a melting point of 136 to 139 °C.

The compound `OC[C@H]1OC(Nc2ccccc2)C[C@@H]1O` (stereo partly specified) registered a melting point of 151 °C.

In turn, `COC(=O)c1cc2ccccc2cn1` gave a melting point of 88 to 89 °C.

`CN(C)c1ccc(C2C3=C(CC(C)(C)CC3=O)Nc3c2ccc2ccccc32)cc1` (stereo unspecified): the melting point was 271 °C.

Take `O=C(c1ccc(Cl)cc1)c1cc2c(cc1Br)OCCO2`: the melting point lay in the range of 129 to 130 °C.

Compound `CC1(C(=O)O)CCC(C(Br)C(Br)c2ccccc2)C1(C)C` (stereo unspecified) returned a melting point of 161 °C.

Turning to `COc1cc2c(cc1OC)C(C#N)C2` (stereo unspecified), the melting point is 82 °C.

In turn, `OCCN(CCO)c1ccc(N=Nc2ccccc2)cc1` returned a melting point of 134 °C.

Compound `Nc1cc(Cl)nc(Cl)c1` displayed a melting point of 174 °C.

Regarding `S=c1cc(-c2ccccc2)oc(-c2ccccc2)c1`, the melting point was found to be 170 °C.

`Cn1c(=O)c2c(ncn2CN2CCOCC2)n(C)c1=O` returned a melting point of 177 °C.

`O=C(O)CC(O)(c1ccccc1)c1ccccc1`: the melting point stood at 210 °C.

Turning to `O=c1[nH]c2ccc([N+](=O)[O-])cc2[nH]1`, the melting point was 314 to 317 °C.

Compound `Nc1ccc(N2CCOCC2)cc1` registered a melting point of 130 to 131 °C.

Turning to `O=C(CI)c1ccccc1`, the melting point amounted to 34.4 °C.

As for `CCC1C(=O)OCC1Cc1cncn1C` (stereo unspecified), the melting point was found to be 34 °C.

As to `COC(=O)c1scc(S(C)(=O)=O)c1-n1cccc1`, the melting point lay in the range of 124 to 126 °C.

In turn, `CC1=CC(=O)C(C(C)C)=CC1=O` displayed a melting point of 45.5 °C.

On to `NC(=O)NN=Cc1ccc2c(Br)cccc2c1`, for which the melting point turned out to be 270 °C.

`C#CC(C)O` (stereo unspecified) had a melting point of -3 °C.

`CC(C)(O)C(Br)(Br)Br` gave a melting point of 169 °C.

Compound `CC(=O)c1cccc(N=C=O)c1` gave a melting point of 33 to 34 °C.

Compound `CCC(C(=O)O)c1ccc(CC(C)C)cc1` (stereo unspecified) yielded a melting point of 52 °C.

Consider `Oc1ccc(Br)c2cccnc12`, for which the melting point came out at 124 °C.

In turn, `CN(C)c1ccccc1[N+](=O)[O-]` gave a melting point of -20 °C.

Take `O=C(CC(=O)c1cc(Cl)ccc1O)c1ccccc1`: the melting point was in the range of 107 to 112 °C.

Take `NNc1cccc2ccccc12`: the melting point was 117 °C.

On to `CC(=O)NC1C(O)CC(O)(C(=O)O)OC1C(O)C(O)CO` (stereo unspecified), for which the melting point lay in the range of 184 to 186 °C.

In the case of `Nc1ncnc2c1ncn2C1CC(O)C(COP(=O)(O)O)O1` (stereo unspecified), the melting point was 148 °C.

Compound `CN(c1ccc2cc3ccc4c(c3nc2c1)COCN4)S(C)(=O)=O` came in with a melting point of 300 °C.

Take `c1cnc2ccc3ncccc3c2c1`: the melting point is 177 °C.

Compound `OCc1cc(Cl)nc(Cl)c1` displayed a melting point of 128 to 130 °C.

For the compound `NC(=O)CCOC1CCN(Cc2ccccc2)CC1`, the melting point was 73 to 75 °C.

`O=C(NC(CO)(Cc1ccccc1)C(=O)O)c1ccccc1` (racemic): the melting point fell in the range of 160 to 162 °C.

The compound `CC(=O)c1ccc(C2CC2(Cl)Cl)cc1` (stereo unspecified) gave a melting point of 35 °C.

With `O=[N+]([O-])c1ccc(-c2ccc(NNc3ccccc3)cc2)cc1`, the melting point stood at 165 °C.

Turning to `O=C(O)C(Cc1cc(I)c(O)c(I)c1)c1ccccc1` (stereo unspecified), the melting point stood at 164 °C.

`C/C=C/C1Nn2c(nnc2-c2cccc([N+](=O)[O-])c2)S1` (stereo unspecified) came in with a melting point of 222 to 224 °C.

As to `CCC(C(=O)O)c1ccccc1C(=O)O` (stereo unspecified), the melting point is 170 °C.

As for `COc1ccccc1C1CCN(c2ccc(C=CC(=O)O)cc2[N+](=O)[O-])CC1`, the melting point was 204 to 206 °C.

Consider `CCOC(=O)C(O)C(O)C(=O)OCC` (stereo unspecified), for which the melting point turned out to be 17 °C.

`O=C(O)/C(=C/c1ccccc1F)c1ccccc1` showed a melting point of 169 °C.

For the compound `CCCCc1ccc(NC(=O)Oc2ccc(OC)cc2)cc1`, the melting point turned out to be 143 °C.

`O=[N+]([O-])c1ccc(C2Nn3c(nnc3-c3ccccc3)S2)cc1` (stereo unspecified) showed a melting point of 225 °C.

`C=CCN=C(S)NCCO` returned a melting point of 78 °C.

Regarding `CCOP(=S)(OCC)Oc1nc(Cl)n(C(C)C)n1`, the melting point is less than 25 °C.

In the case of `CC(O)(c1cc2ccccc2o1)c1cc2ccccc2o1`, the melting point is 91 to 92 °C.

In the case of `O=C(O)CCCCCC1NC(=O)CS1` (stereo unspecified), the melting point worked out at 140 °C.

Regarding `CC1=NN(CN2CCCCC2)C(=O)/C1=N\Nc1cccc(O)c1`, the melting point is 204 to 205 °C.

`O=C(O)c1cccc(-c2cnco2)c1` displayed a melting point of 259 to 261 °C.

`BrCCc1ccc(CCBr)cc1` returned a melting point of 73 °C.

`CC(C)(C)OC(=O)N1CCC(C(N)=O)CC1` yielded a melting point of 163 to 164 °C.

With `COc1ccc(C2Nn3c(nnc3-c3ccc([N+](=O)[O-])cc3)S2)cc1` (stereo unspecified), the melting point turned out to be 153 °C.

`O=C(Cc1cc(CC(=O)Nc2ccccc2)c([N+](=O)[O-])cc1[N+](=O)[O-])Nc1ccccc1`: the melting point was 267 °C.

For `C#CC1(O)C=CC(O)(C#C)C=C1` (stereo unspecified), the melting point stood at 125 °C.

Turning to `CSC(SC)=C1CCCC(=C(SC)SC)C1=C(C#N)C#N`, the melting point is 155 to 156 °C.

For `NC(=NO)c1cccc(C(F)(F)F)c1`, the melting point lay in the range of 82 to 88 °C.

With `NNC(=S)NCCN1CCOCC1`, the melting point amounted to 166 °C.

`CC(C)(C)CC(C)(C)c1ccc(OCCO)cc1` registered a melting point of -4 °C.

In turn, `OCCN1CCN(c2nc3ccc(Cl)cc3s2)CC1` registered a melting point of 128 to 130 °C.

`COc1ccc(O)c(F)c1F` showed a melting point of 105 °C.

In the case of `CN(C)C1(C#N)CCOCC1`, the melting point lay in the range of 51 to 52 °C.

In the case of `Cc1ccc(I)cc1[N+](=O)[O-]`, the melting point worked out at 60 °C.

`O=c1c(=O)c2ccccc12` returned a melting point of 131 °C.

Compound `CC(O)COC(C)(C)C` (stereo unspecified) displayed a melting point of -56 °C.

`O=[N+]([O-])c1ccc2[nH]c(=S)[nH]c2c1`: the melting point is 275 °C.

With `Cc1ccc(S(=O)(=O)NC(=O)NN2CCCCCC2)cc1`, the melting point was determined as 170 °C.

Compound `NC(=O)Nc1ccc(Br)cc1` came in with a melting point of 226 °C.

Regarding `NC(=O)c1cc(O)c(O)c(O)c1`, the melting point was in the range of 240 to 243 °C.

`c1cncc(-c2cccnc2)c1` displayed a melting point of 68 °C.

With `CC(=O)CC(=O)Nc1ccc(-c2ccc(NC(=O)CC(C)=O)c(C)c2)cc1C`, the melting point was 212 °C.

`COC(=O)C(C(=O)OC)=C1SC2=C(C(=O)c3ccccc3C2=O)N1c1ccccc1`: the melting point was determined as 239 °C.

In the case of `O=C(O)c1ccccc1CS(=O)c1ccccc1` (stereo unspecified), the melting point fell in the range of 185 to 187 °C.

Regarding `O=C(O)CCCCc1cccs1`, the melting point worked out at 41 °C.

The compound `OOC1CCCc2ccccc21` (stereo unspecified) had a melting point of 56 °C.

Consider `Nc1ccnc(N)n1`, for which the melting point fell in the range of 143 to 148 °C.

In turn, `CSc1nc2nc(C)cc(C)n2n1` displayed a melting point of 156 to 157 °C.

On to `C=C1C(=O)C23C4CC5C(C)(C)CCC(OC(C)=O)C5(C)C2C(OC(C)=O)CC1(O)C3OC(C)(C)O4` (stereo unspecified), for which the melting point came to 246 °C.

Consider `O=CC(Br)=Cc1ccccc1`, for which the melting point was determined as 70 °C.

For `ClCc1c(Cl)c(Cl)c(CCl)c(Cl)c1Cl`, the melting point came out at 174 °C.

In the case of `O=C(O)c1ccc(-c2ccccc2)nc1`, the melting point was 243 to 245 °C.

On to `O=[N+]([O-])c1coc2ccc(O)cc12`, for which the melting point fell in the range of 164 to 165 °C.

Regarding `CC(O)CN(CC(C)O)C(=O)COC(=O)c1ccccc1` (stereo unspecified), the melting point stood at 106 °C.

For the compound `Cc1nccn1-c1ccc(N)cc1`, the melting point was 112 to 113 °C.

Turning to `CCOC(=O)c1cccc(O)c1`, the melting point worked out at 74 °C.

Regarding `CCOC(=O)C1=C(C)NC(=O)NC1c1ccc([N+](=O)[O-])cc1` (stereo unspecified), the melting point came to 208 °C.

The compound `O=Cc1ccc2cccnc2n1` displayed a melting point of 138 to 143 °C.

On to `CC(=O)OCCN(CCOC(C)=O)CCOC(C)=O`, for which the melting point was -40 °C.

For `CCCCN(C)C(=O)Nc1ccc(Cl)c(Cl)c1`, the melting point came out at 102 °C.

`CN(C)c1ccc(N)c([N+](=O)[O-])c1` yielded a melting point of 119 to 124 °C.

In turn, `N#Cc1ccc(C=Cc2cccc(C=Cc3ccc(C#N)cc3[N+](=O)[O-])c2)c([N+](=O)[O-])c1` showed a melting point of 298 °C.

`O=C(O)C12CC3CC(CC(O)(C3)C1)C2` returned a melting point of 205 °C.

For `N#Cc1cccc(S(=O)(=O)Cl)c1`, the melting point came to 50 °C.

On to `Cc1cc([N+](=O)[O-])ccc1N=C=O`, for which the melting point came to 83 °C.

On to `COc1cc(O)cc(O)c1`, for which the melting point was 80.3 °C.

Compound `O=[N+]([O-])c1c(Cl)c(Cl)cc(Cl)c1Cl` gave a melting point of 100 °C.

Compound `O=[N+]([O-])c1ccc(-c2nnc3n2NCS3)cc1` gave a melting point of 218 °C.

As to `CC1(C)OC[C@H](CC(N)=O)O1`, the melting point lay in the range of 108 to 109 °C.
